Laboratory results: ChEMBL document CHEMBL1201862, “PubChem BioAssay data set” (2004)
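Briefly, cells in 96-well plates were exposed to five compound concentrations for 48 h, and endpoints were estimated by linear interpolation. Here, GI50 denotes the concentration required for 50% inhibition of growth.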 Activity calls are given as the source filed them. Cut-off read from the data, not from the text of the source: active = GI50 up to about 1.1 µM and inactive = higher.

Assays:
Test in all cases: NCI tumour cell line growth inhibition, 48 h
786-0 = system: 786-0
A498 = system: A498
A549 = system: A549
ACHN = system: ACHN
CAKI-1 = system: CAKI-1
CCRF-CEM = system: CCRF-CEM
COLO 205 = system: COLO 205
DLD-1 = system: DLD-1
DMS-114 = system: DMS-114
DMS-273 = system: DMS-273
EKVX = system: EKVX
HCT-116 = system: HCT-116
HCT-15 = system: HCT-15
HL-60 = system: HL-60
HOP-62 = system: HOP-62
HOP-92 = system: HOP-92
HT-29 = system: HT-29
IGROV-1 = system: IGROV-1
K562 = system: K562
KM-20L2 = system: KM-20L2
LOX IMVI = system: LOX IMVI
LXFL 529 = system: LXFL 529
M14 = system: M14
M19-MEL = system: M19-MEL
MOLT-4 = system: MOLT-4
Malme-3M = system: Malme-3M
NCI-H226 = system: NCI-H226
NCI-H23 = system: NCI-H23
NCI-H460 = system: NCI-H460
NCI-H522 = system: NCI-H522
OVCAR-3 = system: OVCAR-3
OVCAR-4 = system: OVCAR-4
OVCAR-5 = system: OVCAR-5
OVCAR-8 = system: OVCAR-8
RPMI-8226 = system: RPMI-8226
RXF 393 = system: RXF 393
SF-268 = system: SF-268
SF-295 = system: SF-295
SF-539 = system: SF-539
SK-MEL-28 = system: SK-MEL-28
SK-MEL-2 = system: SK-MEL-2
SK-MEL-5 = system: SK-MEL-5
SK-OV-3 = system: SK-OV-3
SN12C = system: SN12C
SNB-19 = system: SNB-19
SNB-78 = system: SNB-78
SW-620 = system: SW-620
TK-10 = system: TK-10
U-251 = system: U-251
UACC-257 = system: UACC-257
UACC-62 = system: UACC-62
UO-31 = system: UO-31
XF498 = system: XF498
HCC 2998 = system: HCC 2998
HOP-18 = system: HOP-18
KM12 = system: KM12
SNB-75 = system: SNB-75
SR = system: SR

In the case of `C=CCN1/C(=C2\SC(=S)N(c3ccc(C)cc3)C2=O)Sc2c1nc[nH]c2=O`, the GI50 (786-0) is reported as > 100 µM (inactive), the GI50 (A498) is reported as > 100 µM (inactive) and the GI50 (A549) is reported as > 100 µM (inactive). The GI50 (ACHN) was > 100 µM (inactive), the GI50 (CAKI-1) was > 100 µM (inactive) and the GI50 (CCRF-CEM) was > 100 µM (inactive). For the same compound, the GI50 (COLO 205) was > 100 µM (inactive), the GI50 (DLD-1) was > 100 µM (inactive) and the GI50 (DMS-114) was 76.9 µM (inactive). For the same compound, the GI50 (DMS-273) was > 100 µM (inactive), the GI50 (EKVX) was > 100 µM (inactive) and the GI50 (HCT-116) was > 100 µM (inactive). For the same compound, the GI50 (HCT-15) was 47 µM, the GI50 (HL-60) was > 100 µM (inactive) and the GI50 (HOP-62) was > 100 µM (inactive). The GI50 (HOP-92) was > 100 µM (inactive), the GI50 (HT-29) was > 100 µM (inactive) and the GI50 (IGROV-1) was 64.9 µM (inactive). For the same compound, the GI50 (K562) was > 100 µM (inactive), the GI50 (KM-20L2) was > 100 µM (inactive) and the GI50 (LOX IMVI) was 33.9 µM (inactive). The GI50 (LXFL 529) was > 100 µM (inactive), the GI50 (M14) was > 100 µM (inactive) and the GI50 (M19-MEL) was > 100 µM (inactive). The GI50 (MOLT-4) was 58.9 µM (inactive), the GI50 (Malme-3M) was 78.2 µM (inactive) and the GI50 (NCI-H226) was > 100 µM (inactive). For the same compound, the GI50 (NCI-H23) was > 100 µM (inactive), the GI50 (NCI-H460) was > 100 µM (inactive) and the GI50 (NCI-H522) was 59.2 µM (inactive). The GI50 (OVCAR-3) was > 100 µM (inactive), the GI50 (OVCAR-4) was 96.2 µM (inactive) and the GI50 (OVCAR-5) was > 100 µM (inactive). For the same compound, the GI50 (OVCAR-8) was > 100 µM (inactive), the GI50 (RPMI-8226) was > 100 µM (inactive) and the GI50 (RXF 393) was 26.4 µM (inactive). The GI50 (SF-268) was > 100 µM (inactive), the GI50 (SF-295) was 88.7 µM (inactive) and the GI50 (SF-539) was 48.3 µM (inactive). The GI50 (SK-MEL-28) was > 100 µM (inactive), the GI50 (SK-MEL-2) was 43.3 µM (inactive) and the GI50 (SK-MEL-5) was 66.1 µM (inactive). For the same compound, the GI50 (SK-OV-3) was > 100 µM (inactive), the GI50 (SN12C) was 77.1 µM (inactive) and the GI50 (SNB-19) was > 100 µM (inactive). The GI50 (SNB-78) was > 100 µM (inactive), the GI50 (SW-620) was 65.3 µM (inactive) and the GI50 (TK-10) was > 100 µM (inactive). The GI50 (U-251) was 79.8 µM (inactive), the GI50 (UACC-257) was > 100 µM (inactive) and the GI50 (UACC-62) was > 100 µM (inactive). The GI50 (UO-31) was > 100 µM (inactive) and the GI50 (XF498) was > 100 µM (inactive).

`NCCCCN(CCCN)/[N+]([O-])=N\O` was tested, and the GI50 (786-0) was > 100 µM (inactive), the GI50 (A549) was > 100 µM (inactive) and the GI50 (ACHN) was > 100 µM (inactive). The GI50 (CAKI-1) was > 100 µM (inactive), the GI50 (CCRF-CEM) was > 100 µM (inactive) and the GI50 (COLO 205) was > 100 µM (inactive). For the same compound, the GI50 (DLD-1) was > 100 µM (inactive), the GI50 (DMS-114) was > 100 µM (inactive) and the GI50 (DMS-273) was > 100 µM (inactive). The GI50 (HCC 2998) was > 100 µM (inactive), the GI50 (HCT-116) was > 100 µM (inactive) and the GI50 (HCT-15) was greater than 100 µM. For the same compound, the GI50 (HL-60) was > 100 µM (inactive), the GI50 (HOP-18) was > 100 µM (inactive) and the GI50 (HOP-62) was > 100 µM (inactive). The GI50 (HOP-92) was > 100 µM (inactive), the GI50 (HT-29) was > 100 µM (inactive) and the GI50 (IGROV-1) was > 100 µM (inactive). The GI50 (K562) was > 100 µM (inactive), the GI50 (KM-20L2) was > 100 µM (inactive) and the GI50 (KM12) was > 100 µM (inactive). The GI50 (LXFL 529) was > 100 µM (inactive), the GI50 (M14) was > 100 µM (inactive) and the GI50 (M19-MEL) was > 100 µM (inactive). The GI50 (MOLT-4) was > 100 µM (inactive), the GI50 (Malme-3M) was > 100 µM (inactive) and the GI50 (NCI-H226) was > 100 µM (inactive). For the same compound, the GI50 (NCI-H23) was > 100 µM (inactive), the GI50 (NCI-H460) was > 100 µM (inactive) and the GI50 (NCI-H522) was > 100 µM (inactive). For the same compound, the GI50 (OVCAR-3) was > 100 µM (inactive), the GI50 (OVCAR-4) was > 100 µM (inactive) and the GI50 (OVCAR-5) was > 100 µM (inactive). The GI50 (OVCAR-8) was > 100 µM (inactive), the GI50 (RPMI-8226) was > 100 µM (inactive) and the GI50 (RXF 393) was > 100 µM (inactive). The GI50 (SF-268) was > 100 µM (inactive), the GI50 (SF-295) was > 100 µM (inactive) and the GI50 (SF-539) was > 100 µM (inactive). The GI50 (SK-MEL-28) was > 100 µM (inactive), the GI50 (SK-MEL-2) was > 100 µM (inactive) and the GI50 (SK-MEL-5) was > 100 µM (inactive). The GI50 (SK-OV-3) was > 100 µM (inactive), the GI50 (SN12C) was > 100 µM (inactive) and the GI50 (SNB-19) was > 100 µM (inactive). The GI50 (SNB-75) was > 100 µM (inactive), the GI50 (SNB-78) was > 100 µM (inactive) and the GI50 (SR) was > 100 µM (inactive). The GI50 (SW-620) was > 100 µM (inactive), the GI50 (U-251) was > 100 µM (inactive) and the GI50 (UACC-257) was > 100 µM (inactive). For the same compound, the GI50 (UACC-62) was > 100 µM (inactive) and the GI50 (UO-31) was > 100 µM (inactive).
